Reference: patent publication US10696971B2, “MrgprX2/MrgprB2 expressing cell based assay to detect pseudo-allergic drug reactions and to identify blockers to prevent the adverse reactions” (The Johns Hopkins University, priority 2014, dated 2020)
“Also recorded” adds a separate entry of the source.

Tests used:
MrgprB2 = biological target: T1, MrgprB2 (Mus musculus, UniProt Q3KNA1); assay: Calcium imaging / EC50 determination in HEK293 cells expressing MrgprB2 (MrgprB2-HEK); format: cell-based; settings: HEK293 cells heterologously expressing MrgprB2
T1 construct: expressed in transfected cells
T1 sequence (Q3KNA1 1-338): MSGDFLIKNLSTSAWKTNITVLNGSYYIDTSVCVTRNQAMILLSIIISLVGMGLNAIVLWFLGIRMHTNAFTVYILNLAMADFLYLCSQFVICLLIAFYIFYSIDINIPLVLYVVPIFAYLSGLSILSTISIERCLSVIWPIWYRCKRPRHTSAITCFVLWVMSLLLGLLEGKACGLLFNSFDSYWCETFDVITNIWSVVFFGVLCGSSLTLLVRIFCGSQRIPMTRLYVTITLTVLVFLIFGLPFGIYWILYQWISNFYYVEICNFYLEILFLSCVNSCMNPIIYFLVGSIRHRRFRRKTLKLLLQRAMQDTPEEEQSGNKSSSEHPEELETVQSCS
Protocol: In initial screens, HEK293 cells (not tested for Mycoplasma but rapidly dividing) were transiently transfected with gene constructs including a C-terminal FLAG tag, and plated on 100 μg/ml poly-D-lysine coated glass cover slips six hours after transfection. […] Later experiments utilized cell lines stably expressing receptors along with transient or stable expression of the promiscuous G protein Gα15. […] Unless otherwise specified, drugs were perfused into the chamber for 45 to 60 seconds and responses were monitored at 5-second intervals for an additional 60-90 seconds.
HEK293 cells stably expressing Galpha15 and either MrgprB2 or MrgprX2 were plated at 4×10^4 cells per well in 96-well plates and incubated overnight. […] Cells were incubated at 37° C. for 60 minutes, and allowed to recover for 15 minutes at room temperature before imaging in a Flexstation 3 (Molecular Devices). Wells were imaged according to manufacturer's specifications for 120 seconds, with 50 μl of test substances at 3× concentration added 30 seconds after imaging began. Responses were determined by subtracting the minimum signal from the maximum signal. Substances were tested in duplicate wells, the signals were averaged, and EC50s were determined for each trial by normalizing to the peak response to the substance in that trial.

[1] = system: mouse peritoneal mast cells; assay: Peritoneal mast cell Fluo-4 calcium imaging, WT vs MrgprB2^MUT; format: cell-based; settings: for activation / responsiveness of peritoneal mast cells, WT vs MrgprB2^MUT: Fluo-4 imaging, concentrations per FIG. 2A, 2E, 3A, 4C, 4E, 11 legends
Protocol: Adult male and female mice 2-5 months of age were sacrificed through CO2 inhalation. A total of 12 mls of ice cold mast cell dissociation media (MCDM; HBSS with 3% fetal bovine serum and 10 mM HEPES, pH 7.2) were used to make two sequential peritoneal lavages, which were combined and cells were spun down at 200 g. The pellet from each mouse was resuspended in 2 mls MCDM, layered over 4 mls of an isotonic 70% Percoll suspension (2.8 mls Percoll, 320 μls 10×HBSS, 40 μl 1 M HEPES, 830 μl MCDM), and spun down for 20 minutes, 500 g, 4° C. Mast cells were recovered in the pellet. Purity was >95%, as assayed by avidin staining and by morphology. Mast cells were resuspended at 5×10^5-1×10^6 cells/ml in DMEM with 10% fetal bovine serum and 25 ng/ml recombinant mouse stem cell factor (Sigma), and plated onto glass cover slips coated with 30 μg/ml fibronectin (Sigma). For counting, instead of plating, suspended mast cells were diluted 1/10 and affixed to slides by spinning at 1000 rpm for 5 minutes at 4° C. on a CytoSpin (Thermo Scientific).
For imaging, after two hours of incubation at 37° C., 5% CO2, mast cells were loaded with Fluo-4 along with 0.02% Pluronic F-127 for 30 minutes at room temperature, washed 3 times in CIB and used immediately for imaging. Cells were used within two hours of loading. Cells were identified as responding if the [Ca^2+]i rose by at least 50% for at least 10 seconds, which clearly distinguishes a ligand-induced response from random flickering events. Average traces were calculated by taking the average response from each cell in a mouse, and averaging those.

[2] = Drug preparation and storage observations; format: physicochemical
Protocol: Propranolol also was prepared fresh on the day of the experiment to minimize the chances of a loss in potency. All fluoroquinolones except levofloxacin were dissolved into CIB adjusted to pH 3.5. All other drugs were prepared as 100×-1000× aliquots and stored at −80° C. before thawing at 4° C. and diluting into calcium imaging buffer or saline.

LAD2 human mast cells = assay: LAD2 degranulation assay (β-hexosaminidase release), with MrgprX2 siRNA knockdown; format: cell-based; settings: for β-hexosaminidase release in MrgprX2 siRNA vs control siRNA cells: compound 48/80 0.1, mastoparan 5, icatibant 10, atracurium 25, ciprofloxacin 75 μg/ml
Protocol: LAD2 cells were sensitized for 20 hours with 0.5 μg/ml biotin-conjugated human IgE (Abbiotec). Cells were washed, resuspended in Hepes buffer (10 mM HEPES, 137 mM NaCl, 2.7 mM KCl, 0.38 mM Na2HPO4.7H2O, 5.6 mM glucose, 1.8 mM CaCl2.H2O, 1.3 mM MgSO4.7H2O, 0.4% BSA, pH 7.4) at 0.025×10^6 per well, and then stimulated with 0.1 μg/ml streptavidin (Life Technologies) or other agonists at the indicated concentrations for 30 minutes at 37° C./5% CO2. The β-hexosaminidase released into the supernatants and in cell lysates was quantified by hydrolysis of p-nitrophenyl N-acetyl-β-D-glucosamide (Sigma-Aldrich) in 0.1 M sodium citrate buffer (pH 4.5) for 90 minutes at 37° C. The percentage of β-hexosaminidase release was calculated as a percent of total content.
LAD2 cells were washed with medium, suspended at 0.5×10^6 cells per well, and transfected with 100 nm MrgprX2 siRNA and control siRNA in antibiotic-free StemPro medium using Lipofectamine 3000 (Life Technologies) according to the manufacturer's instruction at 37° C./5% CO2. At 48 hours, knockdown was confirmed by reverse-transcriptase PCR, and the cells were used for degranulation assays.

peritoneal mast cells = assay: Mouse peritoneal mast cell histamine release assay; format: cell-based; settings: WT vs MrgprB2^MUT peritoneal mast cells
Protocol: Mast cells were purified as with the calcium imaging assay and allowed to recover for 2 hours in DMEM with 10% FBS and 25 ng/ml mouse stem cell factor in a 37° C. incubator with 5% CO2. Cells were then spun down, resuspended in CIB, counted, and plated at 300 cells/well in 75 μl CIB in 96-well plates coated with 20 μg/ml fibronectin (Sigma). They were allowed to adhere to the substrate for 45 minutes at 37° C. in atmospheric conditions (i.e. CO2 levels were not adjusted) before assay. […] After 5 minutes, 40 μl of supernatant was aspirated, diluted with 40 μl CIB and frozen at −80° C. until histamine levels were determined. Anti-IgE treatment was similar, except that cells were incubated for 30 minutes at 37° C. after anti-IgE was added before aspiration of supernatant. Histamine content was determined by using an HTRF histamine assay kit (Cisbio Assays) according to the manufacturer's instructions.

WT and MrgprB2^MUT mice = assay: Hindpaw swelling and Evans Blue extravasation; format: in vivo, mouse; settings: icatibant intraplantar after ketotifen i.p. pretreatment (25 μl of 10 mg/ml), n=4
Protocol: Adult male mice up to 8 months of age were anesthetized with an i.p. injection of 50 mg/kg pentobarbital (Sigma). 15 minutes after induction of anesthesia, mice were injected i.v. with 50 μl of 12.5 mg/ml Evans Blue (Sigma) in saline. 5 minutes later, 5 μl of the test substance (or 7 μl of anti-IgE) was administered by intraplantar injection in one paw and saline was administered in the other paw. Paw thickness was measured by calipers immediately after injection. 15 minutes later (30 minutes after anti-IgE), paw thickness was measured again and mice were sacrificed by decapitation. Paw tissue was collected, dried for 24 hours at 50° C., and weighed. Evans Blue was extracted by a 24 hour incubation in formamide at 50° C., and the O.D. was read at 620 nm using a spectrophotometer. For studies using ketotifen, mice were injected i.p. with 25 μl of a 10 mg/ml solution of ketotifen at the same time as pentobarbital.

CCN(CC)CCCC(C)Nc1ccnc2cc(Cl)ccc12 (stereo not drawn) [chloroquine]
response of MrgprB2-HEK cells ([Ca2+]i) (MrgprB2): no response

CC(C)C[C@H](NC(=O)[C@H](C)NC(=O)[C@H](Cc1c[nH]c2ccccc12)NC(=O)[C@H](CCCCN)NC(=O)[C@H](CC(N)=O)NC(=O)[C@H](Cc1c[nH]c2ccccc12)NC(=O)[C@H](CCCCN)NC(=O)[C@H](CCCCN)NC(=O)[C@H](CCCNC(=N)N)NC(=O)[C@@H](N)Cc1ccccc1)C(=O)N[C@@H](CO)C(=O)N[C@@H](CCCNC(=N)N)C(N)=O [PAMP (9-20)]
response of MrgprB2-HEK cells ([Ca2+]i) (MrgprB2): responded
activation / responsiveness of peritoneal mast cells, WT vs MrgprB2^MUT [1]: strongly activated WT but not MrgprB2^MUT mast cells

COc1cc2c3cc1Oc1cc(ccc1O)C[C@@H]1c4c(cc(OC)c(O)c4Oc4ccc(cc4)C[C@@H]3N(C)CC2)CC[N+]1(C)C [tubocurarine]
stability of potency of solutions [2]: susceptible to oxidation and/or freeze-thaw effects

streptavidin: stimulus for biotin-conjugated human IgE sensitized LAD2 cells
β-hexosaminidase release (LAD2 human mast cells; 0.1 μg/ml streptavidin, biotin-conjugated human IgE sensitized LAD2 cells): 71.3±1.8 % release

CC[C@H](C)[C@H](NC(=O)[C@H](CC(=O)O)NC(=O)[C@H](CC(C)C)NC(=O)[C@H](Cc1c[nH]cn1)NC(=O)[C@@H]1CSSC[C@H](N)C(=O)N[C@@H](CO)C(=O)N[C@H]2CSSC[C@H](NC(=O)[C@H](CCC(=O)O)NC(=O)[C@H](CCCCN)NC(=O)[C@H](CC(=O)O)NC(=O)[C@H](CCSC)NC(=O)[C@H](CC(C)C)NC(=O)[C@H](CO)NC(=O)[C@H](CO)NC2=O)C(=O)N[C@@H](C(C)C)C(=O)N[C@@H](Cc2ccc(O)cc2)C(=O)N[C@@H](Cc2ccccc2)C(=O)N1)C(=O)N[C@H](C(=O)N[C@@H](Cc1c[nH]c2ccccc12)C(=O)O)[C@@H](C)CC [endothelin]
activation / responsiveness of peritoneal mast cells, WT vs MrgprB2^MUT [1]: comparable
activation / responsiveness of peritoneal mast cells, WT vs MrgprB2^MUT ([1]; listed as Endothelin): not significantly different

cortistatin
activation / responsiveness of peritoneal mast cells, WT vs MrgprB2^MUT [1]: strongly activated WT but not MrgprB2^MUT mast cells

CSCC[C@H](NC(=O)[C@H](CC(C)C)NC(=O)CNC(=O)[C@H](Cc1ccccc1)NC(=O)[C@H](Cc1ccccc1)NC(=O)[C@H](CCC(N)=O)NC(=O)[C@H](CCC(N)=O)NC(=O)[C@@H]1CCCN1C(=O)[C@H](CCCCN)NC(=O)[C@@H]1CCCN1C(=O)[C@@H](N)CCCNC(=N)N)C(N)=O [Substance P]
response of MrgprB2-HEK cells ([Ca2+]i) (MrgprB2): responded

BAMS-22: MrgprX1 and MrgprC11 agonist Bovine Adrenal Medulla derived peptide, fragment 8-22 (VGRPEWWMDYQKRYG)
percentages of peritoneal mast cells responding, differences ([1]; 500 nM, Fluo-4, p=0.39): not significant

COc1cc2c(cc1OC)[C@@H](Cc1cc(OC)c(OC)c(OC)c1)[N+](C)(CCCOC(=O)CC/C=C/CCC(=O)OCCC[N+]1(C)CCc3cc(OC)c(OC)cc3[C@H]1Cc1cc(OC)c(OC)c(OC)c1)CC2 (stereo partly drawn) [mivacurium]
stability of potency of solutions [2]: susceptible to oxidation and/or freeze-thaw effects

COc1ccc(CC2c3cc(OC)c(OC)cc3CC[N+]2(C)CCC(=O)OCCCCCOC(=O)CC[N+]2(C)CCc3cc(OC)c(OC)cc3C2Cc2ccc(OC)c(OC)c2)cc1OC (stereo not drawn) [atracurium]
stability of potency of solutions [2]: susceptible to oxidation and/or freeze-thaw effects
histamine release from WT peritoneal mast cells (MrgprB2^MUT released substantially less) (peritoneal mast cells): induced histamine release
β-hexosaminidase release in MrgprX2 siRNA vs control siRNA cells (LAD2 human mast cells): significantly reduced

CN1CCC(=C2c3ccccc3CC(=O)c3sccc32)CC1 [ketotifen]
increase in paw thickness, with ketotifen (WT and MrgprB2^MUT mice): 3.1±0.6%

CC[C@H](C)[C@H](N)C(=O)N[C@@H](CC(N)=O)C(=O)N[C@@H](CC(C)C)C(=O)N[C@@H](CCCCN)C(=O)N[C@@H](C)C(=O)N[C@@H](CC(C)C)C(=O)N[C@@H](C)C(=O)N[C@@H](C)C(=O)N[C@@H](CC(C)C)C(=O)N[C@@H](C)C(=O)N[C@@H](CCCCN)C(=O)N[C@@H](CCCCN)C(=O)N[C@H](C(=O)N[C@@H](CC(C)C)C(N)=O)[C@@H](C)CC [mastoparan]
histamine release from WT peritoneal mast cells (MrgprB2^MUT released substantially less) (peritoneal mast cells): induced histamine release
β-hexosaminidase release in MrgprX2 siRNA vs control siRNA cells (LAD2 human mast cells): significantly reduced

insulin: Recombinant human insulin from Roche, negative control
activation / responsiveness of peritoneal mast cells, WT vs MrgprB2^MUT [1]: had no effect; also recorded: not significant
